The subject of data set [1] is blood coagulation (clotting). Briefly: Prothrombin Time (PT) Assay, INR. The conditions noted are these: single agent, within the tested range. In kind it is biochemical. The procedure:
Experiments were conducted to assess the anticoagulant capacities of NAC, Vitamin C and combinations of NAC and Vitamin C via a Prothrombin Time (PT) Assay. A PT assay (TM-4339-063) was conducted using a Coagulation Analyzer to obtain PT instead of manually recording the PT. […] INR (International Normalized Ratio) is a system established by the World Health Organization (WHO) and the International Committee on Thrombosis and Hemostasis for reporting the results of blood coagulation (clotting) tests. INR is calculated as: INR=([…] sample/PTnormal control)^ISI ISI (International Sensitivity Index) indicates the sensitivity of individual thromboplastin. […] All the PTs greater than 3× the […] 1 (normal control) were replaced with 31 seconds.

A short description of another data set: Osmolarity of solutions. The format is physicochemical. The conditions noted are these: 4 wt % (w/v) of each component in solution. The text has this: Formulation and production of disinfectant compositions of the present disclosure are generally straightforward. […] The disinfectant solution may then be sterilized using conventional means, such as filtration and/or ultrafiltration, and other means. […] The solutions are preferably formulated using USP materials.

In a further data set the test system is S. aureus. Briefly: Checkerboard Titration (FIC index), pH<4. In kind it is cell-based. The conditions noted are these: for FIC of the single component (FIC-NAC, FIC-VC): S. aureus, MIC in combination / MIC alone. The procedure:
(§1) The method used was a NCCLS micro-dilution procedure. […] The following concentrations were tested (for S. aureus see FIG. 9 and for P. aeruginosa see FIG. 7 for combinations at a pH<4): [table] Fraction Inhibitory Concentration (FIC) is defined as the MIC of the compound in combination divided by the MIC of the compound alone. If the FIC index is ≦0.5, the combination is interpreted to be synergistic; <1 but >0.5-as partially synergistic; =1 as additive; >1 but <4 as indifferent; and ≧4 as antagonistic.

In data set [2] the test system is Staphylococcus aureus (organism # 25923). In words: pH experiments: MIC at adjusted pH, NCCLS micro-dilution. The conditions noted are these: S. aureus. The format is cell-based. The procedure: (§2) In order to determine MIC and MBC (minimum bactericidal concentration) a National Committee on Clinical Laboratory Standards (NCCLS) micro-dilution procedure was followed. […] In the current protocol 100 μL of MHB was mixed with 90 μL of formulation and 10 μL of log 8 organism or the highest achievable concentration. The concentration of the formulation was adjusted to obtain the required concentration in the final solution. The mixture was incubated at 37 degree C. for 16-24 hrs. After 16-24 hours the absorbance value was read at 600 nm. The obtained data was corrected by subtracting the appropriate blanks. Finally, the wells having an absorbance≧0.1 were marked + and <0.1 were marked −. The + symbol indicated growth while − symbol indicates no growth. […] Staphylococcus aureus (organism # 25923) was obtained from ATCC. […] N-acetyl cysteine (NAC) was used (Acros, Catalogue # 160280250, Lot # A0229576). A 4 wt % NAC solution in water was prepared at a pH of 4. A 4 wt % NAC solution in water was prepared at a pH of 6. […] These solutions were then serially diluted as necessary to obtain the required concentrations. […]
On the technique in general: Broth dilution looks for growth in wells or tubes with falling amounts of substance.

Data set [3] has the same test system. In words: MIC test, NCCLS micro-dilution. The format is cell-based. The conditions noted are these: S. aureus; pH not adjusted (pH < 4); listed as VC. As to the method:
(§3) The minimum concentration of a composition required to inhibit growth is known as the minimum inhibitory concentration (MIC). In order to determine MIC a National Committee on Clinical Laboratory Standards (NCCLS) micro-dilution procedure was followed. […] In the current protocol 100 μL of MHB was mixed with 90 μL of formulation and 10 μL of log 8 organism or the highest achievable concentration. The concentration of the formulation was adjusted to obtain the required concentration in the final solution. The mixture was incubated at 37 degree C. for 16-24 hrs. After 16-24 hours the absorbance value was read at 600 nm. The obtained data was corrected by subtracting the appropriate blanks. Finally, the wells having an absorbance≧0.1 were marked + and <0.1 were marked −. The + symbol indicated growth while − symbol indicates no growth. […] In cases where the positive growth controls corrected absorbance is lower than 0.5, an alternate rule is utilized which is “absorbance<than 20% of positive growth control is marked as − growth, while absorbance≧than 20% of positive growth control is marked as + growth”. Staphylococcus aureus (organism # 25923), Pseudomonas aeruginosa (Organism # 27853) and Candida Albicans (Organism # 10231) was obtained from ATCC. […] N-acetyl cysteine (NAC) was used (Acros, Catalogue # 160280250, Lot # A0229576). A 8 wt % NAC solution in water was prepared. […]

Data set [4] deals with Candida Albicans (Organism # 10231). In words: MIC test, NCCLS micro-dilution. The conditions noted are these: C. albicans; pH not adjusted. The format is cell-based. The procedure:
as §3

A further data set concerns blood coagulation. The conditions noted are these: patients; cited publications; cited from earlier work.
The subject of another data set is P. aeruginosa. In words: Checkerboard Titration (FIC index). The format is cell-based. The conditions noted are these: for FIC of the single component (FIC-NAC, FIC-VC): P. aeruginosa, MIC in combination / MIC alone. As to the method: as §1
In data set [5] the test system is Staphylococcus aureus (organism # 25923). In words: pH experiments: MBC (minimum bactericidal concentration). In kind it is cell-based. Particulars: S. aureus. The procedure: as §2
The conditions of data set [6]: in vivo; cited from earlier work.
For data set [7] the following is noted: cited from earlier work.
Where [8] appears, read: pH of 6, 2.0 wt % starting point.
The mark [9] stands for this setting: pH=6, 2.0% (w/v) starting point.

Several values for one entry are separate records, joined by “and”; a condition that tells them apart may be missing. Equal entries are not always repeated.

On to `O=C1O[C@H]([C@@H](O)CO)C(O)=C1O` [Vitamin C, L-ascorbic acid], for which, in data set [1], the “Change of INR with increase in concentration” value was “no significant increase in INR”. In the data set “Osmolarity of solutions”, this molecule displayed an osmolarity of 223 mOsm/Kg. For the same molecule, the entries for the “FIC of the single component (FIC-NAC, FIC-VC)” value in the data set on S. aureus and with P. aeruginosa were 0.4 and 0.35, respectively. Also, the MIC in [2] (pH of 4) is on record as 0.5 wt %; in [2] (setting [8]), greater than 2.0 wt %; in [2] (pH of 6, 2.0 wt % starting point, listed as VC), greater than 2 wt %; in data set [2] (pH=4), 0.5 % (w/v); in data set [2] (setting [9]) it was > 2.0 % (w/v); in [3], 0.25 wt %. The MIC in [4] is given as greater than 8 wt %. Further, in the data set on blood coagulation, the “Anti-coagulant effect (literature)” value is “has not been identified as an effective anticoagulant when compared with heparin”. The MBC in [5] (pH of 4) is on record as 1.0 wt %; in data set [5] (pH=4), 1.0 % (w/v).
For `CC(=O)N[C@@H](CS)C(=O)O` [NAC, N-acetyl-L-cysteine], the “Change of INR with increase in concentration” value in data set [1] was “increase in INR”. For the same molecule, the osmolarity in the data set “Osmolarity of solutions” was determined as 237 mOsm/Kg. For the same molecule, the “MIC-NAC / MIC-VC (MIC of the component in combination with the other)” value in the data set on S. aureus (S. aureus in MHB) and in the data set with P. aeruginosa (P. aeruginosa in MHB) was 0.25 % (w/v) in each case. Besides, the “FIC of the single component (FIC-NAC, FIC-VC)” value with S. aureus is listed as 0.4; in the data set with P. aeruginosa, 0.35. For the same molecule, the MIC is 2.0 wt % and 2 wt % in data set [2] (pH of 4); greater than 2 wt % in data set [2] (setting [8]); 2.0 % (w/v) in data set [2] (pH=4); > 2.0 % (w/v) in data set [2] (setting [9]). For the same molecule, the “Anti-coagulant effect (literature)” value with blood coagulation is on record as “some anti-coagulant effect”. Also, the “dose shown to be safe for administration to humans” value in [6] is 1200 mg/day. Besides, the MBC in data set [5] (pH of 4) is recorded as 2.0 wt %; in data set [5] (pH=4), 2.0 % (w/v). Moreover, the “Solubility in chloroform and ether” value in data set [7] is reported as “practically insoluble”.

The values above are taken from US20090170932A1, “DISINFECTANT COMPOSITIONS, METHODS AND SYSTEMS” (Tyco Healthcare Group LP, priority 2007, published 2009).
